Data published in PubChem BioAssay AID330 (DTP/NCI, 2004).
Values joined by “and” are separate entries in the source; they are usually repeats but may differ in a detail not shown here. Equal entries are not always repeated. Toxic doses and inconclusive results are not listed. The calls were made as follows: active = survival T/C of 150% or more; inactive = T/C below 125% in these data.

Test system: P388 leukemia ip, CD2F1 mice, survival T/C
Test: NCI In Vivo Anticancer Drug Screen. Data for tumor model P388 Leukemia (intraperitoneal) in CD2F1 (CDF1) mice
Conditions: endpoint: median survival time, higher = longer survival
Procedure, shortened: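 Mice carrying the transplanted tumor received test compound or vehicle. Survival was recorded in each group, and the value is the treated-group measurement divided by that of the vehicle-treated control group.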

[1] = dose: 100.0 mg/kg/injection, schedule: Q04DX003 (ip), vehicle: saline
[2] = dose: 200.0 mg/kg/injection, schedule: Q04DX003 (ip), vehicle: saline
[3] = dose: 400.0 mg/kg/injection, schedule: Q04DX003 (ip), vehicle: saline
[4] = dose: 50.0 mg/kg/injection, schedule: Q01DX009 (ip), vehicle: saline with Tween-80
[5] = dose: 100.0 mg/kg/injection, schedule: Q01DX009 (ip), vehicle: saline with Tween-80
[6] = dose: 200.0 mg/kg/injection, schedule: Q01DX009 (ip), vehicle: saline with Tween-80
[7] = dose: 50.0 mg/kg/injection, schedule: Q01DX005 (ip), vehicle: saline with Tween-80
[8] = dose: 100.0 mg/kg/injection, schedule: Q01DX005 (ip), vehicle: saline with Tween-80
[9] = dose: 200.0 mg/kg/injection, schedule: Q01DX005 (ip), vehicle: saline with Tween-80
[10] = dose: 400.0 mg/kg/injection, schedule: Q01DX009 (ip), vehicle: saline with Tween-80
[11] = dose: 12.5 mg/kg/injection, schedule: Q01DX009 (ip), vehicle: Klucel (hydroxypropylcellulose) (HPC)
[12] = dose: 50.0 mg/kg/injection, schedule: Q01DX009 (ip), vehicle: saline
[13] = dose: 100.0 mg/kg/injection, schedule: Q01DX009 (ip), vehicle: saline

Measured: T/C

OCC1CC2CCCCN2O1 (configuration not stated)
inactive: dose: 25.0 mg/kg/injection, schedule: Q01DX005 (ip), vehicle: saline 102 % of control | dose: 50.0 mg/kg/injection, schedule: Q01DX005 (ip), vehicle: saline 101 % of control | dose: 100.0 mg/kg/injection, schedule: Q01DX005 (ip), vehicle: saline 105 % of control | dose: 200.0 mg/kg/injection, schedule: Q01DX005 (ip), vehicle: saline 106 % of control

CNC(=O)Nc1cc2ccccc2o1
inactive: dose: 100.0 mg/kg/injection, schedule: Q04DX003 (ip), vehicle: saline with Tween-80 110 % of control | dose: 200.0 mg/kg/injection, schedule: Q04DX003 (ip), vehicle: saline with Tween-80 100 % of control | dose: 400.0 mg/kg/injection, schedule: Q04DX003 (ip), vehicle: saline with Tween-80 105 % of control

COC1C=C(Cl)C(=O)C(C)O1 (configuration not stated)
inactive: dose: 25.0 mg/kg/injection, schedule: Q04DX003 (ip), vehicle: Klucel (hydroxypropylcellulose) (HPC) 100 % of control | dose: 50.0 mg/kg/injection, schedule: Q04DX003 (ip), vehicle: Klucel (hydroxypropylcellulose) (HPC) 106 % of control | dose: 100.0 mg/kg/injection, schedule: Q04DX003 (ip), vehicle: Klucel (hydroxypropylcellulose) (HPC) 100 % of control

O=C(NO)c1ccncc1
inactive: [1] 100 % of control | [2] 109 % of control | [3] 109 % of control

Oc1cc(O)cc(/C=C/c2ccc(O)c(O)c2)c1
inactive: dose: 3.12 mg/kg/injection, schedule: Q01DX009 (ip), vehicle: DMSO 109 % of control | dose: 6.25 mg/kg/injection, schedule: Q01DX009 (ip), vehicle: DMSO 114 % of control | dose: 12.5 mg/kg/injection, schedule: Q01DX009 (ip), vehicle: DMSO 118 % of control | dose: 25.0 mg/kg/injection, schedule: Q01DX009 (ip), vehicle: DMSO 123 % of control

COCCOC(=O)c1c(Cl)c(Cl)c(Cl)c(Cl)c1C(=O)O
inactive: [4] 96 % of control | [5] 96 % of control | [6] 101 % of control

CN(C)Nc1ncnc2c1ncn2C
inactive: [7] 103 % of control | [8] 100 % of control | [9] 97 % of control

O=C(O)c1cccc2c1C(=O)N(c1ccc3c(c1)Cc1ccccc1-3)C2=O
inactive: dose: 25.0 mg/kg/injection, schedule: Q01DX005 (ip), vehicle: Klucel (hydroxypropylcellulose) (HPC) 97 % of control | dose: 50.0 mg/kg/injection, schedule: Q01DX005 (ip), vehicle: Klucel (hydroxypropylcellulose) (HPC) 98 % of control | dose: 100.0 mg/kg/injection, schedule: Q01DX005 (ip), vehicle: Klucel (hydroxypropylcellulose) (HPC) 95 % of control | dose: 200.0 mg/kg/injection, schedule: Q01DX005 (ip), vehicle: Klucel (hydroxypropylcellulose) (HPC) 96 % of control

COC(=O)c1cc(Cl)ccc1OS(N)(=O)=O
inactive: dose: 60.0 mg/kg/injection, schedule: Q01DX005 (ip), vehicle: Klucel (hydroxypropylcellulose) (HPC) 103 % of control | dose: 120.0 mg/kg/injection, schedule: Q01DX005 (ip), vehicle: Klucel (hydroxypropylcellulose) (HPC) 102 % of control | dose: 240.0 mg/kg/injection, schedule: Q01DX005 (ip), vehicle: Klucel (hydroxypropylcellulose) (HPC) 97 % of control

CC(C)c1nc2ccc(Cl)cc2[nH]1
inactive: [7] 105 % of control | [8] 100 % of control

CCc1nc2cc(C)ncn2n1
inactive: [1] 100 % of control | [2] 96 % of control | [3] 101 % of control

CC[N+](CC)(CC)CC
inactive: dose: 3.13 mg/kg/injection, schedule: Q04DX003 (ip), vehicle: saline with Tween-80 100 % of control | dose: 12.5 mg/kg/injection, schedule: Q04DX003 (ip), vehicle: saline with Tween-80 118 % of control

CN1c2ccc(Cl)cc2C(=O)NC1c1ccc([N+](=O)[O-])s1 (configuration not stated)
inactive: [4] 106 % of control | [5] 108 % of control | [6] 113 % of control | [10] 115 % of control

C=CC(=O)Oc1ccccc1/C=C/C(=O)CCCCCC
inactive: [7] 98 % of control | [8] 107 % of control | [9] 105 % of control

Nn1c(=S)[nH]nc(/C=C/c2ccc3c(c2)OCO3)c1=O
inactive: [4] 89 % of control | [5] 91 % of control | [6] 98 % of control

N#CCCN(CCC#N)c1ccc(/C=C2/C=C(c3ccccc3)OC2=O)cc1
inactive: dose: 100.0 mg/kg/injection, schedule: Q01DX001 (ip), vehicle: saline with Tween-80 97 % of control | dose: 200.0 mg/kg/injection, schedule: Q01DX001 (ip), vehicle: saline with Tween-80 94 % of control | dose: 400.0 mg/kg/injection, schedule: Q01DX001 (ip), vehicle: saline with Tween-80 90 % of control

NC(C(=O)O)C(N)C(=O)O (configuration not stated)
inactive: [5] 90 % of control | [10] 100 % of control

CC(=O)c1c(O)cc(C)n(Cc2ccccc2)c1=O
inactive: [7] 99 % of control | [8] 100 % of control | [9] 99 % of control

Cc1cc(C)c(S(=O)(=O)Sc2nnnn2C)c(C)c1
inactive: [11] 102 % of control | dose: 25.0 mg/kg/injection, schedule: Q01DX009 (ip), vehicle: Klucel (hydroxypropylcellulose) (HPC) 104 % of control | dose: 50.0 mg/kg/injection, schedule: Q01DX009 (ip), vehicle: Klucel (hydroxypropylcellulose) (HPC) 95 % of control and 98 % of control | dose: 200.0 mg/kg/injection, schedule: Q01DX009 (ip), vehicle: Klucel (hydroxypropylcellulose) (HPC) 98 % of control

COCCOC(=O)NCP(Cl)(CNC(=O)OCCOC)(CNC(=O)OCCOC)CNC(=O)OCCOC
inactive: [12] 100 % of control | [13] 99 % of control | dose: 200.0 mg/kg/injection, schedule: Q01DX009 (ip), vehicle: saline 105 % of control

O=C(O)CNC(=O)C(F)(F)F
inactive: [4] 93 % of control | [5] 91 % of control | [6] 95 % of control

O=C(N/N=C/c1ccccc1[OH2+])c1ccncc1.O=S(=O)([O-])[O-].[Fe+2]
inactive: dose: 100.0 mg/kg/injection, schedule: Q01DX001 (ip), vehicle: Klucel (hydroxypropylcellulose) (HPC) 94 % of control | dose: 200.0 mg/kg/injection, schedule: Q01DX001 (ip), vehicle: Klucel (hydroxypropylcellulose) (HPC) 92 % of control

N=c1c2ncn(C3OC(CO)C(O)C3O)c2ncn1N (configuration not stated)
inactive: dose: 25.0 mg/kg/injection, schedule: Q01DX005 (ip), vehicle: water 110 % of control | dose: 50.0 mg/kg/injection, schedule: Q01DX005 (ip), vehicle: water 107 % of control | dose: 100.0 mg/kg/injection, schedule: Q01DX005 (ip), vehicle: water 105 % of control | dose: 200.0 mg/kg/injection, schedule: Q01DX005 (ip), vehicle: water 98 % of control | dose: 400.0 mg/kg/injection, schedule: Q01DX005 (ip), vehicle: water 108 % of control

COc1cc2c(c(OC)c1)C(O)=C1C(=O)C3C(O)=C(C(=O)NC(C)(C)C)C(=O)C(NC(=S)c4ccccc4)C3CC1C2 (configuration not stated)
inactive: dose: 60.0 mg/kg/injection, schedule: Q01DX005 (ip), vehicle: saline with Tween-80 92 % of control | dose: 120.0 mg/kg/injection, schedule: Q01DX005 (ip), vehicle: saline with Tween-80 94 % of control | dose: 240.0 mg/kg/injection, schedule: Q01DX005 (ip), vehicle: saline with Tween-80 101 % of control

Cc1cc(C)c2nccc(/C=C/c3ccc(N(C)C)cc3)c2c1
inactive: [4] 110 % of control | [5] 108 % of control | [6] 116 % of control | [10] 91 % of control

OCC1OC2OC3C(CO)OC(OC4C(CO)OC(OC5C(CO)OC(OC6C(CO)OC(OC7C(CO)OC(OC8C(CO)OC(OC1C(O)C2O)C(O)C8O)C(O)C7O)C(O)C6O)C(O)C5O)C(O)C4O)C(O)C3O (configuration not stated)
inactive: [12] 100 % of control | [13] 94 % of control

CCOC(=O)C(NC(=O)c1ccccc1)C(C)(C)SCc1ccccc1 (configuration not stated)
inactive: [7] 103 % of control | [8] 101 % of control | [9] 95 % of control

O=C1c2ccccc2C(Cl)=C(Cl)C1(Cl)Cl
inactive: dose: 12.5 mg/kg/injection, schedule: Q01DX009 (ip), vehicle: saline with Tween-80 104 % of control | dose: 25.0 mg/kg/injection, schedule: Q01DX009 (ip), vehicle: saline with Tween-80 90 % of control

Cc1nc(N=C(N)N)nc2ccc3ccccc3c12
inactive: dose: 3.13 mg/kg/injection, schedule: Q01DX009 (ip), vehicle: Klucel (hydroxypropylcellulose) (HPC) 95 % of control | dose: 6.25 mg/kg/injection, schedule: Q01DX009 (ip), vehicle: Klucel (hydroxypropylcellulose) (HPC) 104 % of control | [11] 93 % of control

CN(C)c1nc(N)nc2c1nc(Cl)n2C1OC(CO)C(O)C1O (configuration not stated)
inactive: [7] 99 % of control | [8] 100 % of control | [9] 100 % of control
